Drawing on patent US11780845B2 (Relay Therapeutics, Inc., priority 2019, dated 2023), this text covers IC50 for 49 compounds.

What is called IC50 is the concentration at which inhibition is half-maximal. Low readings indicate greater potency, high ones weaker potency.

A value given as a limit tells only on which side of the number the result lay.

One assay deals with SNU16 cells. Put plainly: SNU16 Cancer Cell Line Proliferation Assay. The assay is classed as cell-based. Conditions: Homo sapiens; SNU-16 cells. A digest of the protocol:
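SNU16 cells were seeded, held 24 h at 37 degrees, then dosed with an 11-point 3-fold dilution series prepared from a 10 mM DMSO stock. After 96 h incubation, viability was read by CellTiter Glo luminescence.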

In the next assay the target is FGFR2 (Homo sapiens (Human), UniProt P21802). The experiment in a line: FGFR2 Biochemical Caliper Assay. Here is the method: Compounds of the present invention were also tested in a FGFR2 Biochemical Caliper Assay. Compounds were prepared in 10 mM DMSO solution and serially diluted into 11 concentrations by 3-fold dilution. […] 5 uL of ATP solution (100 uM) was added to start the reaction and the plate was incubated for 90 minutes, then 70 uL of stopping buffer (0.5M EDTA) was added to terminate the reaction. Each well was analyzed using EZ reader.
FGFR2, sequence (P21802 22-821): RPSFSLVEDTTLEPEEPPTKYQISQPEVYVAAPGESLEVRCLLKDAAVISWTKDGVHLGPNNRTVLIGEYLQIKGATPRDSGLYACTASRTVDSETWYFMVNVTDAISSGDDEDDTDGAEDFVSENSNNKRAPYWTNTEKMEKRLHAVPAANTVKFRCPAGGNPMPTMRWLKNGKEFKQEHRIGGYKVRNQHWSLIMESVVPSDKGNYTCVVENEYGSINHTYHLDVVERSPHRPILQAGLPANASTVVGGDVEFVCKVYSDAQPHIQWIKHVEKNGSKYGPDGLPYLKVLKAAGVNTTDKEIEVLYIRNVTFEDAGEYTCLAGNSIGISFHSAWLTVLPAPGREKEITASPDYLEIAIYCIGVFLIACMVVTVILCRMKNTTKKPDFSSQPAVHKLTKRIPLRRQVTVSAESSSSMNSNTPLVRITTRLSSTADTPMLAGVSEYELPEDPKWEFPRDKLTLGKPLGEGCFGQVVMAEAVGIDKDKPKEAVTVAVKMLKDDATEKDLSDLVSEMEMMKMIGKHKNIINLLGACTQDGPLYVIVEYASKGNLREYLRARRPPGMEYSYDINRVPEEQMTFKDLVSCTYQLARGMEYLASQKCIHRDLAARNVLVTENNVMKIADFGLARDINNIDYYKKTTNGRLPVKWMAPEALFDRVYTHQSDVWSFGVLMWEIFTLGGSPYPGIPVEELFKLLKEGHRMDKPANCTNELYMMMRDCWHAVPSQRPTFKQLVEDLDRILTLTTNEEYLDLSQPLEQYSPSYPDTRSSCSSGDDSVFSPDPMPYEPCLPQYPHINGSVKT

In the case of `C=C(C)C(=O)Nc1ccc(-c2c(-c3ccc(Oc4nccc(C)n4)cc3)c3c(N)ncnc3n2C)c(F)c1` [Example 426], the figures for the IC50 with SNU16 cells and against FGFR2 were at most 100 nM and below 100 nM, respectively.

Take `C=CC(=O)N1CCC(n2cc(-c3c(-c4ccc(OC)cc4)c4c(N)ncnc4n3C)cn2)CC1` [Example 618]: the figures for the half-maximal inhibitory concentration (IC50) in the assay on SNU16 cells and against FGFR2 were at most 100 nM and below 100 nM, respectively.

Take `C=CC(=O)N1CCC(c2c(-c3ccc(CC(=O)N(C)C)cc3)c3c(N)ncnc3n2C)C1` (centres unmarked) [Example 764]: the IC50 in the assay with SNU16 cells and on FGFR2 was 1000 to 100000 nM throughout.

Take `C=C(C)C(=O)Nc1ccc(-c2c(-c3ccc(Oc4ncc(F)cn4)c(C#N)c3)c3c(N)ncnc3n2C)cc1` [Example 429]: the IC50 in the assay with SNU16 cells and on FGFR2 was 100 to 250 nM throughout.

On to `C=C(C)C(=O)Nc1ccc(-c2c(-c3ccc(Oc4cccc(C)n4)cc3)c3c(N)ncnc3n2CCO)cc1` [Example 91], for which the IC50 with SNU16 cells is at most 100 nM; on FGFR2, below 100 nM.

As to `C=CC(=O)N1CCC(c2c(-c3ccc(Oc4ccc(Cl)cn4)cc3)c3c(N)ncnc3n2C)C1` (centres unmarked) [Example 706], the half-maximal inhibitory concentration (IC50) with SNU16 cells is at most 100 nM; against FGFR2, below 100 nM.

For `C=CC(=O)NC1CCC(c2c(-c3ccc(Oc4cccc(C)n4)cc3)c3c(N)ncnc3n2C)CC1` (centres unmarked) [Example 662], the IC50 in the assay with SNU16 cells lay within 250 to 1000 nM; at FGFR2, 100 to 250 nM.

In the case of `C=CC(=O)N1CC[C@H](c2[nH]c3ncnc(N)c3c2-c2ccc(Oc3ncccn3)cc2)C1` [Example 730], the IC50 lay in the range of 1000 to 100000 nM with SNU16 cells and 250 to 1000 nM against FGFR2.

Regarding `C=CC(=O)N1CCC(c2c(-c3ccc(OCc4ccccc4)cc3)c3c(N)ncnc3n2C)C1` (centres unmarked) [Example 748], the IC50 was 250 to 1000 nM with SNU16 cells and 100 to 250 nM at FGFR2.

With `C=C(C)C(=O)Nc1ccc(-c2c(-c3ccc(Oc4nccc(C)n4)c(C)c3)c3c(N)ncnc3n2C)c(F)c1` [Example 479], the IC50 in the assay with SNU16 cells was at most 100 nM; against FGFR2, below 100 nM.

For the compound `C=CC(=O)N1CCC(n2cc(-c3c(-c4ccc(Oc5ccccn5)c(OC)c4)c4c(N)ncnc4n3C)cn2)CC1` [Example 669], the IC50 with SNU16 cells and against FGFR2 was 250 to 1000 nM each time.

Take `C=C(C)C(=O)Nc1ccc(-c2c(-c3ccc(C(=O)N(C)Cc4ncon4)cc3)c3c(N)ncnc3n2C)cc1` [Example 324]: the IC50 lay in the range of 250 to 1000 nM with SNU16 cells and 1000 to 100000 nM on FGFR2.

With `C=CC(=O)Nc1ccc(-c2c(-c3ccc(Oc4ccccn4)c(OC)c3)c3c(N)ncnc3n2C)cc1` [Example 5], the IC50 in the assay on SNU16 cells is at most 100 nM; on FGFR2, below 100 nM.

Take `C=CC(=O)N1CCC(c2c(-c3ccc(C(=O)N4CCC(F)(F)C4)cc3)c3c(N)ncnc3n2C)C1` (centres unmarked) [Example 718]: the half-inhibitory concentration (IC50) with SNU16 cells and against FGFR2 was 250 to 1000 nM throughout.

Consider `C=C(C)C(=O)Nc1ccc(-c2c(-c3ccc(C(=O)N4CCC[C@H]4C#N)cc3)c3c(N)ncnc3n2C)c(F)c1` [Example 459], for which the results for the half-maximal inhibitory concentration (IC50) with SNU16 cells and against FGFR2 were at most 100 nM and below 100 nM, respectively.

As for `C=C(C)C(=O)Nc1ccc(-c2c(-c3ccc(Oc4nccc(OC)n4)c(F)c3)c3c(N)ncnc3n2C)cc1` [Example 507], the concentration for half-maximal inhibition (IC50) in the assay with SNU16 cells was at most 100 nM; at FGFR2, below 100 nM.

Turning to `C=C(C)C(=O)N1CCC(n2cc(-c3c(-c4ccc(Oc5cccc(C)n5)cc4)c4c(N)ncnc4n3C)cn2)CC1` [Example 622], the values for the concentration for half-maximal inhibition (IC50) in the assay on SNU16 cells and against FGFR2 were 1000 to 100000 nM and 250 to 1000 nM, respectively.

`C=C(C)C(=O)Nc1ccc(-c2c(C3=C(F)CC(C(=O)N4CCCC4)CC3)c3c(N)ncnc3n2C)cc1` (centres unmarked) [Example 601]: the half-inhibitory concentration (IC50) in the assay on SNU16 cells lay in the range of 250 to 1000 nM; against FGFR2 it was 1000 to 100000 nM.

Turning to `C=C(C)C(=O)Nc1ccc(-c2c(-c3ccc(C(=O)N4CCCC5CC54)cc3)c3c(N)ncnc3n2C)cc1` (centres unmarked) [Example 239], the IC50 with SNU16 cells was at most 100 nM; against FGFR2, below 100 nM.

In the case of `C=C(C)C(=O)Nc1ccc(-c2c(-c3ccc(Oc4nnc(C)o4)cc3)c3c(N)ncnc3n2C)cc1` [Example 393], the figures for the half-inhibitory concentration (IC50) with SNU16 cells and at FGFR2 were 250 to 1000 nM and 1000 to 100000 nM, respectively.

`C=CC(=O)Nc1ccc(-c2c(-c3ccc(C(=O)N4CCCC4)cc3)c3c(N)ncnc3n2C)c(F)c1` [Example 213]: the half-maximal inhibitory concentration (IC50) in the assay with SNU16 cells is at most 100 nM; on FGFR2 it was below 100 nM.

Consider `C=C(CN(C)C)C(=O)Nc1ccc(-c2c(-c3ccc(Oc4cccc(C)n4)cc3)c3c(N)ncnc3n2C)cc1` [Example 485], for which the half-inhibitory concentration (IC50) with SNU16 cells was at most 100 nM; on FGFR2 it was below 100 nM.

With `C=C(C)C(=O)Nc1ccc(-c2c(-c3ccc(Oc4ncc(F)cn4)c(F)c3)c3c(N)ncnc3n2C)cc1` [Example 116], the IC50 with SNU16 cells was at most 100 nM; at FGFR2, below 100 nM.

Turning to `C=CC(=O)Nc1ccc(-c2[nH]c3ncnc(N)c3c2-c2ccc(Oc3cccc(C)n3)cc2)cc1` [Example 769], the IC50 in the assay on SNU16 cells is at most 100 nM; at FGFR2, below 100 nM.

On to `C=C(C)C(=O)Nc1ccc(-c2c(-c3cc(F)c(Oc4nccc(C)n4)cc3F)c3c(N)ncnc3n2C)cc1` [Example 546], for which the results for the 50% inhibitory concentration (IC50) in the assay with SNU16 cells and against FGFR2 were at most 100 nM and below 100 nM, respectively.

`C=C(C)C(=O)Nc1ccc(-c2c(-c3ccc(S(=O)(=O)N(C)CC(F)(F)F)cc3)c3c(N)ncnc3n2C)cc1` [Example 316]: the IC50 in the assay with SNU16 cells and against FGFR2 was 250 to 1000 nM in each case.

On to `C=CC(=O)Nc1ccc(-c2c(-c3ccc(Oc4ncc(C)cn4)c(OC)c3)c3c(N)ncnc3n2C)cc1` [Example 32], for which the results for the IC50 in the assay with SNU16 cells and against FGFR2 were at most 100 nM and below 100 nM, respectively.

In the case of `C=CC(=O)N1CCC(n2cc(-c3c(-c4ccc(Oc5cccc(C)n5)cc4)c4c(N)ncnc4n3C)cn2)C1` (centres unmarked) [Example 630], the IC50 is at most 100 nM in the assay on SNU16 cells and below 100 nM against FGFR2.

Take `C=CC(=O)Nc1ccc(-c2c(-c3ccc(Oc4cccc(CC)n4)c(OC)c3)c3c(N)ncnc3n2C)cc1` [Example 50]: the half-inhibitory concentration (IC50) with SNU16 cells was at most 100 nM; on FGFR2, below 100 nM.

As to `C=CC(=O)N1CC[C@H](c2c(-c3ccc(Oc4ncccn4)cc3)c3c(N)ncnc3n2CCN2CCOCC2)C1` [Example 741], the IC50 in the assay on SNU16 cells and against FGFR2 was 1000 to 100000 nM throughout.

`C=CC(=O)N1CCC(n2cc(-c3c(-c4ccc(Oc5ncccn5)cc4)c4c(N)ncnc4n3C)cn2)CC1` [Example 633]: the concentration for half-maximal inhibition (IC50) in the assay with SNU16 cells and at FGFR2 was 100 to 250 nM each time.

Consider `C=CC(=O)N1CCC(n2cc(-c3c(-c4ccc(Oc5ccccc5)cc4)c4c(N)ncnc4n3C)cn2)C(O)C1` (centres unmarked) [Example 607], for which the half-inhibitory concentration (IC50) with SNU16 cells is at most 100 nM; against FGFR2 it was below 100 nM.

Take `C=C(C)C(=O)Nc1ccc(-c2c(-c3ccc(Oc4cccc(C)n4)cc3)c3c(N)ncnc3n2C)cc1CN(C)C` [Example 380]: the half-maximal inhibitory concentration (IC50) was in the range of 250 to 1000 nM with SNU16 cells and 100 to 250 nM against FGFR2.

Consider `C=C(C)C(=O)Nc1ccc(-c2c(-c3ccc(C(=O)NC4CC(F)C4)c(F)c3)c3c(N)ncnc3n2C)cc1` (centres unmarked) [Example 567], for which the 50% inhibitory concentration (IC50) is at most 100 nM in the assay with SNU16 cells and 100 to 250 nM on FGFR2.

Consider `C=C(C)C(=O)Nc1ccc(-c2c(-c3ccc(C(=O)N4CC5CC5C4)cc3)c3c(N)ncnc3n2C)c(F)c1` (centres unmarked) [Example 487], for which the figures for the IC50 in the assay on SNU16 cells and at FGFR2 were at most 100 nM and below 100 nM, respectively.

For the compound `C=CC(=O)N1CC=C(c2c(-c3ccc(Oc4ccccc4)cc3)c3c(N)ncnc3n2C)CC1` [Example 603], the concentration for half-maximal inhibition (IC50) is at most 100 nM in the assay with SNU16 cells and below 100 nM at FGFR2.

As to `C=C(C)C(=O)Nc1ccc(-c2c(-c3ccc([S+]([O-])C4CC4)cc3)c3c(N)ncnc3n2C)cc1` (centres unmarked) [Example 160], the IC50 in the assay with SNU16 cells and on FGFR2 was 250 to 1000 nM each time.

`C=C(C)C(=O)Nc1ccc(-c2c(-c3ccc(Oc4ncc(OC)cn4)c(F)c3)c3c(N)ncnc3n2C)cc1` [Example 449]: the values for the half-maximal inhibitory concentration (IC50) in the assay on SNU16 cells and against FGFR2 were 100 to 250 nM and 250 to 1000 nM, respectively.

In the case of `C=CC(=O)N1CCC(c2c(-c3ccc(C(=O)N4CCCCC4)cc3)c3c(N)ncnc3n2C)C1` (centres unmarked) [Example 750], the half-inhibitory concentration (IC50) in the assay on SNU16 cells was at most 100 nM; at FGFR2 it was below 100 nM.

Turning to `C=CC(=O)N1CCC(c2c(-c3ccc(S(=O)(=O)C4CC4)cc3)c3c(N)ncnc3n2C)C1` (centres unmarked) [Example 785], the IC50 was at most 100 nM with SNU16 cells and below 100 nM on FGFR2.

In the case of `C=CC(=O)N1CCC(c2c(-c3cnn(CC4CCNCC4)c3)c3c(N)ncnc3n2C)C1` (centres unmarked) [Example 732], the figures for the IC50 in the assay with SNU16 cells and at FGFR2 were 1000 to 100000 nM and 100 to 250 nM, respectively.

In the case of `C=C(C)C(=O)Nc1ccc(-c2c(-c3ccc(C(=O)N4CC5CCC4CC5)cc3)c3c(N)ncnc3n2C)cc1` [Example 262], the IC50 with SNU16 cells was at most 100 nM; against FGFR2, below 100 nM.

Consider `C=CC(=O)NC1CC=C(c2c(-c3ccc(Oc4cccc(C)n4)c(OC)c3)c3c(N)ncnc3n2C)CC1` (centres unmarked) [Example 623], for which the IC50 in the assay with SNU16 cells and at FGFR2 was 100 to 250 nM each time.

Turning to `C=CC(=O)N1CCC(c2c(-c3ccc(-c4ncc[nH]4)cc3)c3c(N)ncnc3n2C)C1` (centres unmarked) [Example 765], the IC50 is 1000 to 100000 nM with SNU16 cells and below 100 nM against FGFR2.

Regarding `C=C(COC)C(=O)Nc1ccc(-c2c(-c3ccc(Oc4cccc(C)n4)cc3)c3c(N)ncnc3n2C)cc1` [Example 401], the IC50 in the assay with SNU16 cells is at most 100 nM; against FGFR2, below 100 nM.

Consider `C=CC(=O)N1CCC(c2c(-c3ccc(COc4ccccc4)cc3)c3c(N)ncnc3n2C)C1` (centres unmarked) [Example 729], for which the half-inhibitory concentration (IC50) in the assay on SNU16 cells and on FGFR2 was 100 to 250 nM each time.

In the case of `C=C(C)C(=O)Nc1ccc(-c2c(-c3ccc(Oc4cccc(C)n4)cc3)c3c(N)ncnc3n2C2COC2)cc1` [Example 415], the concentration for half-maximal inhibition (IC50) is at most 100 nM in the assay on SNU16 cells and below 100 nM on FGFR2.

Consider `Cc1cccc(Oc2ccc(-c3c(-c4cnn(C5CCN(C(=O)/C=C/CN6CCOCC6)CC5)c4)n(C)c4ncnc(N)c34)cc2)n1` [Example 646], for which the IC50 with SNU16 cells and on FGFR2 was 100 to 250 nM in each case.

With `C=C(C)C(=O)Nc1ccc(-c2c(-c3ccc(C(=O)NCC(C)(C)C#N)cc3)c3c(N)ncnc3n2C)cc1` [Example 373], the half-maximal inhibitory concentration (IC50) with SNU16 cells was at most 100 nM; at FGFR2, below 100 nM.
